# In the METLIN SMRT retention time set (Domingo-Almenara et al. 2019):
# Experiment: gradient 5% acetonitrile 3 min, to 50% in 2 min, to 85% in 15 min, held 3 min, 100 µL/min
# Conditions: column: Zorbax Extend-C18 2.1 x 50 mm; eluents: water / acetonitrile, 0.1% formic acid
# How it was run: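 Using water and acetonitrile that each contained 0.1% formic acid, mixtures of ~100 pure standards were separated at 100 μL/min on a Zorbax Extend-C18 column (2.1 × 50 mm, 1.8 μm). The HPLC fed a quadrupole time-of-flight mass spectrometer working in positive and negative ionization mode, with dead and dwell volumes of 40 μL and 900 μL. Data were acquired over 3 months. Retention time was read from computationally picked adduct peaks after manual inspection of each.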
row,SMILES,RP-LC retention time [s]
1,COc1cccc(CNC(=O)C2(C)CCCN(C(=O)Nc3cc(C)ccc3C)C2)c1 (centres undefined),939
2,Cc1ccsc1C(=O)N1CC[C@@H](n2c(=O)n(C)c3cccnc32)C1,710
3,CCCCN1CCN(C(=O)C2c3ccccc3CCN2C(C)=O)CC1 (centres undefined),585
4,Cc1ccc(NS(=O)(=O)c2cc3n(c2)CCN(CC(C)C)C3=O)cc1C,846
5,CCn1nc(N2CCCC(NC(=O)C3(c4ccccc4)CCCC3)C2)ccc1=O (centres undefined),792
6,CC(Oc1ccc(C(C)(C)C)cc1)C(=O)Nc1ccnn1Cc1ccco1 (centres undefined),1020
7,CCn1c(=O)sc2cc(S(=O)(=O)N3CCC(C(=O)Nc4cc(C)ccc4C)CC3)ccc21,932
8,CCOC(=O)c1noc2ncnc(Nc3ccccc3OCC)c12,971
9,COc1ccc(OC)c(NC(=O)c2cnn(-c3ccc(Cl)cc3)c2)c1,991
10,Cc1cccc(-c2noc(C3CCCN3C(=O)NCc3ccc(F)cc3)n2)c1 (centres undefined),974
11,O=C(Cn1c(C2CCCO2)nc2ccccc21)Nc1ccccc1 (centres undefined),638
12,Cc1[nH]c2ccc(F)cc2c1CCNCc1ccccn1,572
13,CCC(C)NC(=O)N1CCN(Cc2nc3cc(C(=O)N(CC)CC)ccc3o2)CC1 (centres undefined),619
14,CCOC(=O)Cc1ccc(NC(=O)NC2CCN(c3ccc(C)cc3)C2=O)cc1 (centres undefined),784
15,COc1cc(-c2cc(C(=O)O)c3cc4c(cc3n2)OCCO4)cc(OC)c1OC,676
16,O=C(Cn1nc(N2CCCC2)c2ccccc2c1=O)Nc1ccc2c(c1)OCO2,854
17,CC(=O)N1CCc2cc(N3CC(C(=O)Nc4cc(F)ccc4Cl)CC3=O)ccc21 (centres undefined),749
18,COc1cccc(-n2c(=O)c(C(=O)Nc3ccc(F)c(F)c3)c(O)c3cccnc32)c1,1250
19,Nc1cc(S(=O)(=O)N2CCCCCC2)ccc1Cl,902
20,CCOc1ccccc1-c1noc(Cn2c(=O)n(CC(C)C)c(=O)c3ccccc32)n1,1150
21,CC1CCCN(C(=O)C2CCN(CCc3c[nH]c4ncccc34)CC2)C1 (centres undefined),586
22,CCn1cc(-c2nc(CC(=O)NCc3ccccc3Cl)cs2)c2cccnc21,924
23,Cc1nccnc1Sc1ccccc1,956

row,SMILES,RP-LC retention time [s]
1,CC(C)S(=O)(=O)c1cc2c(cc1NC(=O)c1ccc(F)cc1)n(C)c(=O)n2C,788
2,O=C(NCC(c1ccsc1)N1CCc2ccccc2C1)C(=O)Nc1ccon1 (centres undefined),572
3,Cc1cccc(CNC(=O)CC2CCN(C(=O)c3[nH]c(C)cc3C)CC2)c1,794
4,O=C(NCc1ccco1)c1ccc2c(c1)CCCN2S(=O)(=O)c1ccccc1,914
5,NC(=O)C1CCN(C(=O)c2cccc(NC(=O)c3nsc4ccccc34)c2)CC1,703
6,O=C(NCc1ccccc1Cl)C(=O)c1cn(CC(=O)N2CCCC2)c2ccccc12,968
7,Cc1cc2c(OCC(CNC(C)(C)C)OC(=O)c3ccccc3)cccc2[nH]1 (centres undefined),799
8,CN(C)CCNc1ccc(-c2nc(-c3ccc(F)cc3)no2)cn1,668
9,CN(CC#N)C(=O)c1ccc2c(c1)CCN2C(=O)C1CC1,680
10,Cc1cc(N2CCOCC2)nc(N2CCN(C(=O)c3ccccc3Br)CC2)n1,612
11,CC(C)S(=O)(=O)c1cc2c(cc1NC(=O)c1c(F)cccc1F)n(C)c(=O)n2C,792
12,O=C(Cc1csc(NC(=O)c2cnccn2)n1)Nc1nc2ccccc2s1,734
13,Cc1ccc(Nc2nc(-c3ccccc3)c(CC(=O)O)s2)cc1,900
14,O=C(Cn1ccc2ccc(N3CCOCC3)nc21)NCc1ccc2c(c1)OCO2,791
15,Cc1cc(-c2nnc(C3CC3)o2)c(C)n1CC(=O)NCc1ccc(F)c(Cl)c1,848
16,CCc1ccc(CNC(=O)Cc2nnc(-c3ccccn3)o2)cc1,743
17,CCCn1c(=O)c(N2CCC(NC(=O)Nc3ccc(Cl)cc3)CC2)nc2ccccc21,1090
18,Cc1cc(C)cc(C(=O)N2CCC(c3noc(N)c3C(C)C)CC2)c1,829
19,Cc1ccc(NC(=O)C2(C)Oc3cccnc3N(C)C2=O)c(C)c1 (centres undefined),816
20,Cc1nnc(C2CCCN(C(=O)Cn3c(=O)oc4ccccc43)C2)s1 (centres undefined),633
21,CCCN1C(=O)CN(S(C)(=O)=O)CC1(C)C(=O)NCc1ccc(Cl)cc1 (centres undefined),758
22,COc1ccc(S(=O)(=O)N2C[C@@H]3C[C@H]2C[C@@H]3NC(=O)c2ccccc2)cc1Cl,861
23,CCC(=O)N1CCc2c(C(=O)NCc3ccc4c(c3)OCO4)cccc21,718

row,SMILES,RP-LC retention time [s]
1,O=C(Cc1nnc(-c2cnccn2)o1)Nc1ccccc1Cl,681
2,CC1=C(C(=O)N2CCOCC2)C(c2cc(Br)ccc2F)C2=C(CC(C)(C)CC2=O)N1 (centres undefined),715
3,Cc1ccc(CNC(=O)CCc2c(-c3ccc(Br)cc3)nc3ccccn23)cc1,709
4,Cc1ccccc1NC(=O)C1C(=O)N(C)C2(C)CC1c1ccccc1O2 (centres undefined),991
5,COc1cccc(NC(=O)N(C)CC2CCOCC2)c1,685
6,O=C(O)c1ccc(Nc2c(-c3ccc(Cl)cc3)nc3cnccn23)cc1,737
7,CN1CCN(c2ccc(-c3ccc(NC(=O)c4cc(Cl)ccc4Cl)cc3)nn2)CC1,646
8,CCOc1ccc(-c2[nH]ncc2CNS(=O)(=O)c2ccc(OC)c(Cl)c2)cc1,860
9,COc1ccc(NC(=O)c2cnc3c(c2)c(=O)n(C)c(=O)n3-c2ccccc2)cc1Cl,916
10,COc1ccc(-n2ncc3c(=O)n(Cc4nc(-c5cc(OC)c(OC)c(OC)c5)no4)cnc32)cc1,927
11,CCOC(=O)c1c(C)oc2nc(C)nc(NCC3CCN(Cc4ccccc4F)CC3)c12,702
12,COc1cccc2cc(-c3ccc(OCC(=O)N4CCC(C(N)=O)CC4)cc3)c(=O)oc12,672
13,CCc1nnc2nc(N3CCN(C(=O)c4cccs4)CC3)cc(C)n12,592
14,O=C(NC1CCCCC1)C1CCN(c2ncccc2-c2nc(-c3ccc(Cl)cc3)no2)CC1,1230
15,COc1ccc(NC(=O)c2cn3c(n2)CCCC3)cc1,574
16,CCCN(C(=O)Nc1ccc(CC)cc1)c1nc(-c2ccc(Br)cc2)cs1,660
17,CCn1ccc2c(cc(C(=O)Nc3ccc(C(C)C)cc3)n2C)c1=O,902
18,CC1=C(c2ccc(C(C)C)cc2)S(=O)(=O)N=C1N1CCC(C(=O)NCCc2ccco2)CC1,947
19,CCN(CC)c1ccc(/C=C2\SC(=O)NC2=O)cc1,876
20,O=C(NCCn1nc(-c2ccncc2)ccc1=O)c1ccc(C(F)(F)F)cc1,570
21,Cc1ccc(NC(=O)C2CCN(C(=O)c3ncn4c3COC(c3ccc(F)cc3)C4)CC2)cc1 (centres undefined),804
22,CC(=O)NCC(=O)NCc1nn(Cc2ccccc2)c2ccccc12,679
23,CN(C)c1ccc(NC(=O)c2cn(-c3ccc(F)cc3)nn2)cc1,675

row,SMILES,RP-LC retention time [s]
1,Fc1cccc(-c2nn3c(-c4ccc5ccccc5n4)nnc3s2)c1,987
2,CCOC(=O)c1ccc(NC(=O)Cn2nc3c(Oc4ccccc4)nccn3c2=O)cc1,852
3,CC(C)(C)NC(=O)CCc1ccc2nc(-c3ccccc3)[nH]c2c1,632
4,CCOC(=O)C(C)NC(=O)N1CCc2cc(-c3ccc(C(=O)N4CCOCC4)cc3)ccc21 (centres undefined),751
5,O=C(NCc1ccccn1)C1CCCN(c2nccnc2Sc2ccccc2)C1 (centres undefined),687
6,Cc1ccc(S(=O)(=O)N2CCC(C(=O)NCc3csc(-c4cccs4)n3)CC2)c(C)c1,977
7,COc1ccc(-c2nc3nc(C)cc(C)n3c2Nc2ccccc2C)cc1,742
8,NC(=O)c1cccc2cn(-c3ccc([C@@H]4CCCNC4)cc3)nc12,630
9,CN(C)C(=O)c1ccc2c(c1)N(CC(=O)Nc1ccc(F)cc1)C(=O)CO2,654
10,Cc1ccc(C)c(NC(=O)C2CCc3nc(N4CCOCC4)ncc3C2)c1 (centres undefined),753
11,Cc1nccn1-c1cc(C(C)C)c(C#N)c2nc3ccccc3n12,622
12,COc1ccc(C(C)NC(=O)CCc2ccc3c(ccn3C)c2)cc1OC (centres undefined),819
13,Cc1oc(-c2[nH]ncc2C(=O)N2CCOCC2)cc1S(=O)(=O)NCC1CCCCC1,742
14,O=C(NCc1cnoc1-c1ccc(F)cc1)c1c(F)cccc1F,817
15,Cc1oc(-c2[nH]ncc2C(=O)N(C)C)cc1S(=O)(=O)Nc1ccc(F)cc1,670
16,Cn1ncc(NC(=O)Cc2ccc(Cl)cc2)c(N2CCOCC2)c1=O,772
17,CCC(C)NC(=O)Cn1nc2c3sc(N(C)C)nc3ncn2c1=O (centres undefined),1130
18,Cc1nc2cccnc2n1C1CCN(C(=O)Nc2cccc(F)c2)CC1,947
19,O=C(NC1CCCC1)c1nc(C(=O)N2CCN(c3ccccc3F)CC2)cs1,940
20,O=C(c1nc2ccccn2c1-c1ccsc1)N1CCCC1,622
